This is an account of results in publication PMC12722308, “A phase 1 study of orally administered 5-fluoro-2’-deoxycytidine with tetrahydrouridine in patients with refractory solid tumors” (Cancer Chemotherapy and Pharmacology, 2025).

A short description of data set [1]: Urinary excretion by LC-MS/MS. Type of data set: in vivo, human. To be noted: geom. mean (geom. SD). As for the experimental part:
(§1) Blood specimens for PK analysis were collected on Cycle 1 Day 1 (C1D1) prior to THU administration and then at 15, 30, and 45 min and 1, 2, 3, 4, 5, and 6 h after THU administration, as well as on C1D2 and C1D3 prior to and 2 h after THU administration. Urine specimens for PK analysis were collected on C1D1 prior to treatment and then at every void from 0 to 24 h after THU administration. All specimens for PK analysis were processed and analyzed by LC-MS/MS as described previously, and Phoenix WinNonlin software was used for data analysis.

Data set [2] is described as follows: Phase 1 dose escalation: adverse events (CTCAE v4.0), DLT, MTD/RP2D. Conditions: orally once daily with 160 mg FdCyd on days 1–6 and 8–13 of each 21-day cycle (dose level 8). Type of data set: in vivo, human.
Experimental: FdCyd and THU were supplied by the NCI Division of Cancer Treatment and Diagnosis. Patients were administered both drugs orally in 21-day cycles, and dose escalation proceeded according to a traditional 3 + 3 design as per the dose escalation schema shown in Supplementary Table S1. […] Patients maintained a study diary to note any side effects or concurrent medications. The NCI Common Terminology Criteria for Adverse Events version 4.0 was used to grade adverse events. Tumor response was assessed by radiography at baseline and every 2 cycles thereafter and evaluated per RECIST version 1.1 [11]. Following determination of the maximum tolerated dose (MTD)/recommended phase 2 dose (RP2D), an additional 13 patients were enrolled on a RP2D expansion cohort for assessments of pharmacodynamic biomarkers in baseline and on-treatment tumor biopsies.
DLTs were defined as toxicities that were at least possibly related to FdCyd or THU within the first cycle of treatment and met one of the following criteria: grade ≥ 3 non-hematological toxicity (including grade 3 nausea, vomiting, or diarrhea only if refractory to standard supportive care; grade 3 electrolyte toxicities only if unable to be corrected to ≤ grade 1 within 24 h; and tumor pain only if refractory to analgesics); grade 4 thrombocytopenia; or grade 4 neutropenia lasting ≥ 5 days or febrile neutropenia. […]
Data set [3] in a line: Plasma pharmacokinetics by LC-MS/MS. Format: in vivo, human. To be noted: for THU AUC0-6/Dose / THU Cl/F / THU Cmax/Dose / Tmax / Vd/F / half-life / AUC(0-inf) / Cmax / AUC(0-t) / concentration at 24 h / concentration at 48 h: geom. mean (geom. SD); for Tmax: read-out: THU Tmax; for Vd/F: read-out: THU Vz/F; for half-life: read-out: THU t½ (converted); for AUC(0-inf): read-out: THU AUC0-inf; for Cmax: read-out: THU Cmax; for AUC(0-t): read-out: THU AUC0-6; for concentration at 24 h: read-out: THU Cmin24h; for concentration at 48 h: read-out: THU Cmin48h. The protocol: as §1

The conditions of data set [4]: cited from earlier work.
Data set [5] relates to leukemias and myelodysplastic syndromes. Also noted: method as in PMID 23671007. To be noted: specific indications of leukemias and myelodysplastic syndromes; cited from earlier work.
Details of data set [6]: method as in PMID 21576646. To be noted: oral administration, phase 1 study; cited from earlier work.
Setting [7] is: DL1-DL9: THU 3000 mg oral once daily (n=44).
[8] abbreviates: DL10-DL11: THU 6000 mg oral twice daily (n=11).
Setting [9] is: human, plasma, oral, Total, all dose levels (n=55).
[10] abbreviates: human, plasma, po, 3000 mg, DL1-DL9: THU 3000 mg oral once daily (n=44).
The mark [11] stands for this setting: human, plasma, po, 6000 mg, DL10-DL11: THU 6000 mg oral twice daily (n=11).
Where [12] appears, read: human, plasma, DL1-DL9: THU 3000 mg oral once daily (n=44).
Where [13] appears, read: human, plasma, DL10-DL11: THU 6000 mg oral twice daily (n=11).

“And” between values parts separate entries of the source, which are not always exact repeats. Identical values can stand only once. Like-named read-outs stand apart in the source and are kept apart here.

Broadly, the Tmax is the time from dosing to the highest level. By bioavailability is commonly meant the share of a dose that reaches the circulation, judged against a reference dose that is usually intravenous. The term Cmax denotes the highest concentration seen after dosing. For the compound `O=C1NC(O)CCN1[C@@H]1O[C@H](CO)[C@@H](O)[C@H]1O` (stereo partly drawn) [THU, tetrahydrouridine], the “THU urinary excretion over 0-24 hours of day 1” value in data set [1] (All FdCyd doses + THU 3000 mg, N=42) is 2.1 (2.0) % dose; in data set [1] (All FdCyd doses + THU 6000 mg, N=10) it was 1.2 (2.5) % dose; in data set [1] (DL1: FdCyd 30 mg + THU 3000 mg, N=3), 2.9 (2.0) % dose; in data set [1] (DL2: FdCyd 60 mg + THU 3000 mg, N=3) it was 2.8 (1.6) % dose; in data set [1] (DL3: FdCyd 90 mg + THU 3000 mg, N=3), 2.1 (1.4) % dose; in data set [1] (DL4: FdCyd 120 mg + THU 3000 mg, N=3), 1.1 (4.8) % dose. Moreover, the “THU urinary excretion over 0-24 hours of day 1” value in data set [1] (DL5-9: FdCyd 160 mg + THU 3000 mg, N=30) is recorded as 2.1 (1.8) % dose; in data set [1] (DL10: FdCyd 60 mg + THU 6000 mg, N=7), 1.1 (2.9) % dose; in data set [1] (DL11: FdCyd 80 mg + THU 6000 mg, N=3), 1.6 (1.7) % dose; in data set [1] (Total, all dose levels, N=52), 1.9 (2.1) % dose. In addition, the “Maximum tolerated dose / RP2D, THU dose” value in data set [2] is reported as 3000 mg. Further, in data set [3] (AUC0−6 P = 0.007, Cmax P = 0.005, C24h P = 0.002, C48h P = 0.004), the “THU exposure in patients who experienced a DLT vs those who did not” value is “significantly higher THU exposures”. In addition, the “THU AUC0-6/Dose” value in data set [3] (setting [7]) was 2.25 (1.63) µg/L•h / mg; in data set [3] (setting [8]), 1.79 (1.37) µg/L•h / mg; in data set [3] (Total, all dose levels (n=55)) it was 2.15 (1.60) µg/L•h / mg. In addition, the “THU Cl/F” value was 142 L/h and 142 (1.8) L/h in data set [3] (setting [7]); 190 (1.6) L/h in data set [3] (setting [8]); 147 (1.7) L/h in data set [3] (Total, all dose levels (n=55)). Besides, the “THU Cmax/Dose” value is 505 (1.7) µg/L / g in data set [3] (setting [7]); 390 (1.4) µg/L / g in data set [3] (setting [8]); 480 (1.6) µg/L / g in data set [3] (Total, all dose levels (n=55)). Besides, the “Increase in THU 24 and 48 h trough concentrations” value in data set [3] (THU 6000 mg twice daily vs 3000 mg once daily, expected 4-fold) is roughly 10 fold. Further, the “THU plasma concentrations for the oral RP2D compared with the intravenous RP2D of 350 mg/m^2 THU” value in data set [3] (comparison with ref 8) is listed as 9–13 % lower. The Tmax in data set [3] (setting [9]) was roughly 3 h; in data set [3] (setting [10]), 3 h; in data set [3] (setting [11]) it was 3.2 h. The figures for the Vd/F in data set [3] (setting [9]), in data set [3] (setting [10]) and in data set [3] (setting [11]) were 1830 L, 1810 L and 2040 L, respectively. The half-life in data set [3] (setting [9]) is 8.7 h; in data set [3] (setting [10]), 8.8 h; in data set [3] (human, plasma, po, 6000 mg, DL10-DL11: THU 6000 mg oral twice daily, half-life determined for only 6 patients) it was 7.4 h. Also, the bioavailability in data set [3] (human, plasma, oral, from previous clearance (43 mL/min/m^2) vs current Cl/F (142 L/h), read-out: THU bioavailability in the current study) is roughly 3%. Besides, the AUC(0-inf) in data set [3] (setting [10]) turned out to be 21100 ng·h/mL; in data set [3] (setting [11]) it was 31600 ng·h/mL. For the same compound, the Cmax amounted to 1520 ng/mL in data set [3] (setting [10]) and 2340 ng/mL in data set [3] (setting [11]). The AUC(0-t) in data set [3] (setting [12]) was 6750 ng·h/mL; in data set [3] (setting [13]), 10800 ng·h/mL. Besides, the concentration at 24 h in data set [3] (setting [12]) was 260 ng/mL; in data set [3] (setting [13]), 2520 ng/mL. Moreover, the concentration at 48 h in data set [3] (setting [12]) turned out to be 330 ng/mL; in data set [3] (setting [13]), 3170 ng/mL. Further, the “THU bioavailability, previously established” value in data set [4] is 4.1%. For the same compound, the “THU clearance, previous values” in data set [4] (intravenous THU, ref previous clearance values) is reported as 43 mL/min/m^2.
As to `Nc1ncn([C@@H]2O[C@H](CO)[C@@H](O)[C@H]2O)c(=O)n1` [azacytidine], the Response rates in data set [5] is greater than 50%. For the same compound, in data set [6], the “Most common grade 3/4 toxicity and dose-limiting toxicity” value is reported as “diarrhea”.
Regarding `Nc1ncn([C@H]2C[C@H](O)[C@@H](CO)O2)c(=O)n1` [decitabine, 5-aza-2’deoxycytidine], the Response rates in data set [5] is greater than 50%.
